Earlier results as cited in patent US20210046025A1, “Injection for Protecting Ischemic Myocardium and Preparation Method thereof” (priority 2018, published 2021).

How the values were obtained:
[1] = tested on: ischemia/reperfusion myocardial infarction; details: large animal models, clinically relevant reperfusion (Min Xie et al., Circulation 2014)
[2] = first-pass metabolism elimination

Oral bioavailability [2]: very low
Solubility in oil and water: insoluble in both oil and water
Water solubility: poor
Structure (SMILES): O=C(CCCCCCC(=O)Nc1ccccc1)NO [N-suberoylanilide hydroxamic acid]
Effect on myocardial infarction area [1]: reduce myocardial infarction area
